Biological target: T1, glycine transporter encoded by rB20a (Rattus norvegicus, UniProt P28572)
T1 construct: expressed in transfected cells
T1 sequence (P28572 1-638): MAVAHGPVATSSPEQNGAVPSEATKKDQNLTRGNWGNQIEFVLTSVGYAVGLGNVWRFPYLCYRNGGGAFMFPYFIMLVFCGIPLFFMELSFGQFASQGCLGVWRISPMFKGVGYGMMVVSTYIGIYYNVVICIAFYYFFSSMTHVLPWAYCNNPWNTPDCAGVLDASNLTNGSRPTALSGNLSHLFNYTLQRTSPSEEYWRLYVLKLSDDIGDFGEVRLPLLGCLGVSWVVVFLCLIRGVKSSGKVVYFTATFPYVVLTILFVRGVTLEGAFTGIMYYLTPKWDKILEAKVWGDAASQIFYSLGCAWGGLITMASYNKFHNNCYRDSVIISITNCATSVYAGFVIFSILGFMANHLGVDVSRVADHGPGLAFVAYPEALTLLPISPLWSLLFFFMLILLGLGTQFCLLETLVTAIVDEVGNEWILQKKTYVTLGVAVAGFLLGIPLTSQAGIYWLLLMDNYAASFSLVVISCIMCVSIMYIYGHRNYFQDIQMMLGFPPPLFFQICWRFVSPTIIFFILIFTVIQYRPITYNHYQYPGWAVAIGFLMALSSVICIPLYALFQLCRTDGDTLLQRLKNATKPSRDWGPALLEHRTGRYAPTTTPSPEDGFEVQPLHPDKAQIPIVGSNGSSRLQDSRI
Test: Transport of radiolabeled substrates by COS cells transiently transfected with rB20a
Assay type: cell-based
Conditions: data not shown
Description: (§1) These two clones were constructed into a full-length clone (designated rB20a) by ligation at their internal Nco I sites and then cloned into the eukaryotic expression vector pSVL (Pharmacia LXB Biotechnology, Piscataway, N.J.). Transient transfection of COS cells was carried out using DEAE-dextran with DMSO according to the method of Lopata et al. (1984) with minor modifications. COS cells were grown in six-well plates (37° C.,5%CO2) in high glucose Dulbecco's modified Eagle medium supplemented with 10% bovine calf serum, 100 U/ml penicillin G, and 100 μg/ml streptomycin sulfate. Cells were routinely used two days after transfection for transport studies.
(§2) Plates were incubated at 37° C. for 10 or 20 minutes, then washed rapidly 3× with HBS. Cells were solubilized with 0.05% sodium deoxycholate/0.1N NaOH (1 ml/well), 0.5 ml aliquots were removed, neutralized with 1N HCl, and radioactivity was determined by scintillation counting. Protein was quantified in an aliquot of the solubilized cells with the Bradford Reagent (Biorad, Richmond, Calif.), according to the manufacturer's directions.

| Compound | effect of rB20a expression on uptake of the radiolabeled substrate |
| --- | --- |
| NCCc1cnc[nH]1 [[^3 H]histamine] | did not significantly alter |
| NCCc1ccc(O)c(O)c1 [[^3 H]dopamine] | did not significantly alter |
| NCCCC(=O)O [[^3 H]GABA] | did not significantly alter |
| N[C@@H](Cc1ccc(O)cc1)C(=O)O [[^3 H]tyrosine] | did not significantly alter |
| [3H][C@](O)(CN)c1ccc(O)c(O)c1 [[^3 H]norepinephrine] | did not significantly alter |
| ^3 H]glutamate | did not significantly alter |
| NCCc1c[nH]c2ccc(O)cc12 [[^3 H]5-HT] | did not significantly alter |

Tested on: high-affinity transporter present in glial cell cultures
Test: not given
Conditions: read-out: Km for glycine; cited from earlier work

| Compound | Km [µM] |
| --- | --- |
| NCC(=O)O [glycine] | 95 |

Tested on: high-affinity transporter in rat brain synaptosomes
Test: not given
Conditions: read-out: Km for glycine; cited from earlier work

| Compound | Km [µM] |
| --- | --- |
| NCC(=O)O [glycine] | 50 |

Biological target: T1, glycine transporter encoded by rB20a
Test: Competition for [3H]glycine uptake by COS-7 cells transfected with rB20a
Assay type: cell-based
Conditions: COS-7, 10 min, read-out: % displacement of specific [3H]glycine uptake
Description: as §1, §2
Nonspecific uptake was determined with 1 mM

| inhibition at 10 µM [%] | inhibition at 100 µM [%] | Compound | inhibition at 1000 µM [%] |
| --- | --- | --- | --- |
| 0 | 0 | COC(=O)CN [glycine methyl ester] | 42 |
| 23 | 64 | CNCC(=O)O [sarcosine, N-methylglycine] | 100 |
| – | – | CNC(C)(C)C(=O)O [α-(methylamino)isobutyric acid] | 3 |
| – | – | NCCc1c[nH]cn1 [histamine] | 0 |
| – | – | NCCCC(=O)O [GABA, gamma-aminobutyric acid] | 0 |
| – | – | N[C@@H](CO)C(=O)O [L-serine] | 4 |
| – | – | NC[C@H](O)c1ccc(O)c(O)c1 [(-)-norepinephrine] | 0 |
| – | – | C[C@H](N)C(=O)O [L-alanine] | 2 |
| – | – | N[C@@H](CCC(=O)O)C(=O)O [L-glutamate] | 0 |
| – | – | NCC(=O)O [glycine] | 100 |
| – | – | NCCc1ccc(O)c(O)c1 [dopamine] | 0 |
| 0 | 0 | CCOC(=O)CN [glycine ethyl ester] | 32 |

Same assay, conditions: estimated from inhibition at three concentrations

| IC50 [µM] | Compound |
| --- | --- |
| ~50 | CNCC(=O)O [sarcosine, N-methylglycine] |

Same assay, conditions: inhibitor 10 μM; 50 nM [3H]glycine, 10 minutes, 37° C.

| % displacement of specific [3H]glycine uptake | Compound |
| --- | --- |
| no inhibition | COC(=O)CN [glycine methyl ester] |
| no inhibition | CCOC(=O)CN [glycine ethyl ester] |

Same assay, conditions: inhibitor 100 μM; 50 nM [3H]glycine, 10 minutes, 37° C.

| % displacement of specific [3H]glycine uptake | Compound |
| --- | --- |
| no inhibition | COC(=O)CN [glycine methyl ester] |
| no inhibition | CCOC(=O)CN [glycine ethyl ester] |

Same assay, conditions: inhibitor 1 mM; 50 nM [3H]glycine, 10 minutes, 37° C.

| Compound | % displacement of specific [3H]glycine uptake |
| --- | --- |
| CNC(C)(C)C(=O)O [α-(methylamino)isobutyric acid] | Neither α-(methylamino) isobutyric acid (1 mM), a substrate for system A, nor L-serine (1 mM), a substrate for system ASC, significantly competed |
| N[C@@H](CO)C(=O)O [L-serine] | Neither α-(methylamino) isobutyric acid (1 mM), a substrate for system A, nor L-serine (1 mM), a substrate for system ASC, significantly competed |

— patent US5756348A (Synaptic Pharmaceutical Corporation, priority 1994, dated 1998)
